How the values were obtained:
[1] = arterial blood pressure in the femoral artery (narcotized dogs, i.v.); format: in vivo; settings: dog, 0.5 mg./kg. i.v., dihydrochloride
Description: (§1) With respect to the change in the oxygen tension in the coronary veinous blood, the pharmacological investigation of the vasodilator action on the coronary vessels was carried out in dogs according to the methods described by W.K.A. Schaper and his co-workers (see W.K.A. SCHAPER, R. XHONNEUX, and J.M. BOGAARD "Ueber die kontinuierliche Messung des Sauerstoffdruckes im venoesen Coronarblut" (Naunyn-Schmiedeberg's Arch. exp. Path. u. Pharmak. 245, 383-389 (1963)). The test preparations were applied intravenously to the narcotized and spontaneously breathing animals. On these test conditions the dilatation of the coronary arteries caused by the test substances along with the increase in the coronary blood flow led to an increase in the oxygen tension in the coronary veinous blood. This oxygen tension was measured according to polarographic methods by means of a platin electrode of the Gleichmann-Lubbers type (see U. GLEICHMANN and D.W. LUEBBERS "Die Messung des Sauerstoffdruckes in Gasen and Fluessigkeiten mit der Platin-Elektrode unter besonderer Berucksichtigung der Messung im Blut," Pflugers Arch. 271, 431-455 (1960)). The heart rate was continuously measured by electronic methods from systolic peaks of the arterial blood pressure. The arterial blood pressure was measured in the known manner in the femoral artery with the aid of an electromanometer of the Statham-strain-gauge type.
(§2) The following table gives the results of the pharmacological investigations which were carried through. The preparations were tested in the form of their respective dihydrochlorides: […]

[2] = heart rate, continuously measured from systolic peaks of the arterial blood pressure (narcotized dogs, i.v.); format: in vivo; settings: dog, 0.5 mg./kg. i.v., dihydrochloride
Description: as §1, with “The arterial blood pressure was measured in the known manner in the femoral artery with the aid of an electromanometer of the Statham-strain-gauge type.” left out

[3] = test system: coronary vessels; assay: vasodilator action on the coronary vessels: change in the oxygen tension in the coronary veinous blood (narcotized dogs, i.v.); format: in vivo; settings: dog, 0.5 mg./kg. i.v., dihydrochloride
Description: as §1, §2

[4] = LD 50 Mouse; settings: in vivo, iv, dihydrochloride

Compound: COc1ccc(CN2CCN(CC(Cc3c(C)c4ccc(OC)c(OC)c4oc3=O)OC(=O)c3cc(OC)c(OC)c(OC)c3)CC2)cc1OC (stereo not drawn) [3-[γ-(N-3,4-dimethoxy-benzyl-piperazino)-β-(3,4,5-trimethoxybenzoxy)-propyl]-4-methyl-7,8-dimethoxy-coumarin]
- Maximal Change in the Blood Pressure (diastolic) ([1]; diastolic): -66%
- Maximal Change in the Blood Pressure ([1]; duration): > 25 min
- Maximal Change in the Blood Pressure (systolic) ([1]; systolic): -57%
- Maximal Change in the Heart Rate [2]: -20%
- Maximal Change in the Heart Rate ([2]; duration): > 25 min
- Maximal Increase in Oxygen Tension in the Coronary Veinous Blood [3]: +60%
- Maximal Increase in Oxygen Tension in the Coronary Veinous Blood ([3]; duration): > 25 min

Compound: COc1cc(C(=O)OC(Cc2c(C)c3ccc(OC)c(OC)c3oc2=O)CN2CCN(CC(=O)Nc3c(C)cccc3C)CC2)cc(OC)c1OC (stereo not drawn) [3-[γ-{N-(2,6-dimethyl-anilidocarbonylmethyl)-piperazino}-β-(3,4,5-trimethoxybenzoxy)-propyl]-4-methyl-7,8-dimethoxy-courmarin]
- LD50 [4]: > 400 mg/kg
- Maximal Increase in Oxygen Tension in the Coronary Veinous Blood [3]: +36%
- Maximal Increase in Oxygen Tension in the Coronary Veinous Blood ([3]; duration): > 20 min
